According to EP0655457A1, “MORANOLINE DERIVATIVE” (NIPPON SHINYAKU COMPANY, LIMITED, priority 1992, dated 1994):

Tested on: ELAM-1 dependent adhesion of cultured human leukemia HL60 cells
Test: Binding of HL60 cells to IL-1β-activated human vascular endothelial cells (cell adhesion count)
Assay type: cell-based
Settings: for Cell adhesion count (%): % of control (HL60 bound to IL-1β-activated HUVEC = 100%); for Cell adhesion count: adhered HL60 cells on HUVEC activated with IL-1β 10U/ml
Experimental: The effect of the synthetic sugar on the binding of activated human vascular endothelial cells and cultured human leukemia HL60 cells
Cultured human vascular endothelial cells were separated from the human umbilical vein by collagenase treatment and cultured in a culture flask coated with 1% gelatin or fibronectin at a concentration of 0.02 mg/cm². The growth medium used was prepared by adding 15% fetal calf serum (FCS), 45 mg/l ECGS, 90 mg/l heparin and 40 mg/l gentamicin to medium 199. The proliferation of the cultured human leukemia cell line HL60 was maintained using 10% FCS-containing RPMI-1640. Both cells were cultured in a CO₂ incubator (5% CO₂, 95% air) at 37°C.
The cultured human umbilical vein endothelial cells (HUVEC) were seeded on a 96-well microtiter plate which had been precoated with 0.1% gelatin and were incubated until the growth became confluent. After the cells were washed with 10% FCS-containing Dulbecco's modified Eagle's medium (DMEM), 100 µl of 10% FCS-DMEM containing recombinant human interleukin-1β (IL-1β) was added. The cells were then cultured in a CO₂ incubator at 37°C for 4 hours (activation). The HL60 cells were washed twice with serum-free DMEM, suspended in 0.5% glutaldehyde-containing Hanks' solution and fixed on wet ice for 30 minutes.
The fixed cells were washed twice with serum-free DMEM to remove the fixative. Then, 10% FCS-containing DMEM was added to the cells so as to provide a suspension of 2x10⁶ cells/ml, which was then preserved on wet ice till use.
The HUVEC activated above was washed with 10% FCS-containing DMEM and 50µl of 10% FCS-DMEM containing either anti-ELAM-1 antibody (BBA 2, British Biotechnology Ltd., Abinton) or the test substance was added followed by incubation at room temperature for 30 minutes. The fixed HL60 cells were added in 50 µl aliquots and the incubation was further continued at room temperature for 45 minutes.
After the unbound HL60 cells were washed off, the center of each well was photographed and the number of adhered cells in the photographing field was counted. With the number of HL60 cells bound to the IL-1β-activated HUVEC being taken as 100%, the effect of addition of the test substance was evaluated.

[1] = concentration of 500 µg/ml, referring to Table 2
[2] = concentration of 100 µg/ml, referring to Table 1

Compound | Cell adhesion count (%) (Table 2, 50 µg/ml, n=6) | Cell adhesion count (Table 2, 50 µg/ml, n=6) | Cell adhesion count (%) (Table 2, 500 µg/ml, n=6) | Cell adhesion count (Table 2, 500 µg/ml, n=6) | inhibit the adhesion of HL60 cells to activated HUVEC [1] | Cell adhesion count (%) (Table 1, 100 µg/ml, n=5) | Cell adhesion count (Table 1, 100 µg/ml, n=5) | inhibit the adhesion of HL60 cells to activated HUVEC [2]
CC(=O)N1C(=O)C2(OCC3NCC(O)C(O)C3O)CC(O)C1C(C(O)C(O)CO)O2 [Example (8), 6-O-(5-acetamido-3,5-dideoxy-D-glycero-α-D-galacto-2-nonulopyranosylono-1',5-N-lactam)-1,5-dideoxy-1,5-imino-D-glucitol] | 89.6% | 473.7 | 81.1% | 428.5 | 18.9% | – | – | –
6-O-(5-acetamido-3,5-dideoxy-D-glycero-α-D-galacto-2-nonulopyranosylono-1',5-N-lactam)-1,5-dideoxy-1,5-imino-D-galactitol [Example (10)] | 93.4% | 494.7 | 82.5% | 436.2 | 17.5% | – | – | –
CC(=O)N[C@H]1[C@H]([C@H](O)[C@H](O)CO)O[C@@](OC[C@@H]2[C@H](O)[C@H](O)[C@@H](O)CN2C)(C(=O)O)C[C@@H]1O [Example (11), O-(5-acetamido-3,5-dideoxy-D-glycero-α-D-galacto-2-nonulopyranosylonic acid)-(2→6)-1,5-dideoxy-N-methyl-1,5-imino-D-galactitol] | – | – | – | – | – | 40.4% | 155.0 | 59.6%
CC(=O)N[C@H]1[C@H]([C@H](O)[C@H](O)CO)O[C@@](OC[C@@H]2[C@@H](O)[C@H](O)[C@@H](O)CN2C)(C(=O)O)C[C@@H]1O [Example (9), O-(5-acetamido-3,5-dideoxy-D-glycero-α-D-galacto-2-nonulopyranosylonic acid)-(2→6)-1,5-dideoxy-N-methyl-1,5-imino-D-glucitol] | – | – | – | – | – | 49.1% | 188.4 | 50.9%
